Experimental data: article PMC8270338, “Exploring New Scaffolds for the Dual Inhibition of HIV-1 RT Polymerase and Ribonuclease Associated Functions” (Molecules, 2021)
Structures can show the parent of a compound that is named as a salt. Where two headings read alike, the source gives them in different places.

Legend:
[1] = biological target: T1, HIV-1 RT-associated RNA-dependent DNA-polymerase (RDDP) (Human immunodeficiency virus type 1 group M subtype B, UniProt P04585); assay: biochemical; parameters: species or system HIV-1 group M subtype B
T1 construct: The full length HIV-1 RT group M subtype B was expressed and purified; made in house
Description: The HIV-1 RT-associated RNA-Dependent DP activity was measured as previously described. […] The enzymatic reaction was stopped by the addition of EDTA.

[2] = biological target: T2, HIV-1 RT-associated RNase H (Human immunodeficiency virus type 1 group M subtype B, UniProt P04585); assay: HIV-1 RT-associated DNA polymerase-independent RNase H activity determination; assay type: biochemical, HIV-1 group M subtype B; conditions: full length HIV-1 wt RT, no pre-incubation with the enzyme, 1 h at 37 °C; concentration reducing RNase H activity by 50%
T2 construct: The full length HIV-1 RT group M subtype B was expressed and purified; made in house
Description: The full length HIV-1 RT group M subtype B was expressed and purified as previously described. The HIV RT-associated RNase H activity was measured as described. […] Reactions were stopped by the addition of EDTA and products were measured with a Perkin–Elmer Victor 3 multilabel counter plate reader (Waltham, MA, USA) at excitation–emission wavelength of 490/528 nm (Table 1).

| SMILES | melting point | IC50 ([1]; read-out: RDDP IC50) | IC50 [2] | IC50 [1] |
| --- | --- | --- | --- | --- |
| COc1ccc(-c2ccccc2C(N)=O)cc1/C=N/Nc1nc(-c2ccc([N+](=O)[O-])cc2)cs1 (as salt: bromide) [EMAC2063, 2-{3-[(2-{4-[4-nitrophenyl]-1,3-thiazol-2-yl}hydrazin-1-ylidene)methyl]-4-methoxyphenyl}benzamide bromide] | 208 °C (dec.) | – | – | – |
| COc1ccc(-c2csc(NN=Cc3cc(-c4ccccc4)ccc3OC)n2)cc1 [EMAC2056, 2-[2-[(2-Methoxy-5-Phenylphenyl)methylidene]hydrazin-1-yl]-4-(4-Methoxyphenyl)-1,3-Thiazole Bromide] | – | 36 ± 5 µM | 19.5 ± 5.5 µM | – |
| COc1ccc(-c2ccccc2)cc1C=NNc1nc(-c2ccc(Cl)c(Cl)c2)cs1 [EMAC2057, 4-(3,4-dichlorophenyl)-2-[2-[(2-methoxy-5-phenylphenyl)methylidene]hydrazin-1-yl]-1,3-thiazole bromide] | – | 88 ± 12 µM | 57 ± 5 µM | – |
| COc1ccc(-c2ccccc2)cc1C=NNc1nc(-c2cccc(Cl)c2)cs1 [EMAC2058, 4-(3-chlorophenyl)-2-[2-[(2-methoxy-5-phenylphenyl)methylidene]hydrazin-1-yl]-1,3-thiazole bromide] | – | 56.5 ± 9.5 µM | 46 ± 1 µM | – |
| COc1ccc(-c2ccccc2)cc1C=NNc1nc(-c2ccc([N+](=O)[O-])cc2)cs1 [EMAC2059, 4-(4-nitrophenyl)-2-[2-[(2-methoxy-5-phenylphenyl)methylidene]hydrazin-1-yl]-1,3-thiazole bromide] | – | 39.5 ± 11.5 µM | 12.8 ± 4.3 µM | – |
| COc1ccc(-c2csc(N/N=C/c3cc(-c4ccccc4C(N)=O)ccc3OC)n2)cc1 [EMAC2060, 2-{4-methoxy-3-[(1E)-{2-[4-(4-methoxyphenyl)-1,3-thiazol-2-yl]hydrazin-1-ylidene}methyl]phenyl}benzamide bromide] | – | 27 ± 1 µM | 21.5 ± 3.5 µM | – |
| COc1ccc(-c2ccccc2C(N)=O)cc1C=NNc1nc(-c2ccc(Cl)c(Cl)c2)cs1 [EMAC2061, 2-{3-[{2-[4-(3,4-dichlorophenyl)-1,3-thiazol-2-yl]hydrazin-1-ylidene}methyl]-4-methoxyphenyl}benzamide bromide] | – | 19.5 ± 0.5 µM | 6.5 ± 2.5 µM | – |
| COc1ccc(-c2ccccc2C(N)=O)cc1C=NNc1nc(-c2ccc(Cl)cc2)cs1 [EMAC2062, 2-{3-[{2-[4-(4-chlorophenyl)-1,3-thiazol-2-yl]hydrazin-1-ylidene}methyl]-4-methoxyphenyl}benzamide bromide] | – | 17 ± 2 µM | 8 ± 2 µM | – |
| COc1ccc(-c2ccccc2C(N)=O)cc1/C=N/Nc1nc(-c2ccc([N+](=O)[O-])cc2)cs1 [EMAC2063, 2-{3-[(2-{4-[4-nitrophenyl]-1,3-thiazol-2-yl}hydrazin-1-ylidene)methyl]-4-methoxyphenyl}benzamide bromide] | – | – | 4.5 ± 0.5 µM | 8 µM |
| COc1ccc(-c2csc(NN=Cc3cc(-c4ccccc4Br)ccc3OC)n2)cc1 [EMAC2064, 2-{[5-(2-bromophenyl)-2-methoxyphenyl]methylidene}hydrazin-1-yl]-4-(4-methoxyphenyl)-1,3-thiazole bromide] | – | 32.5 ± 2.5 µM | 13 ± 4 µM | – |
| COc1ccc(-c2ccccc2Br)cc1C=NNc1nc(-c2ccc(Cl)c(Cl)c2)cs1 [EMAC2065, 2-{[5-(2-bromophenyl)-2-methoxyphenyl]methylidene}hydrazin-1-yl]-4-(3,4-dicholophenyl)-1,3-thiazole bromide] | – | 53.5 ± 15.5 µM | 15 ± 1 µM | – |
| COc1ccc(-c2ccccc2Br)cc1C=NNc1nc(-c2ccc(Cl)cc2)cs1 [EMAC2066, 2-{[5-(2-bromophenyl)-2-methoxyphenyl]methylidene}hydrazin-1-yl]-4-(4-cholophenyl)-1,3-thiazole bromide] | – | 71.5 ± 6.5 µM | 47 ± 3 µM | – |
| COc1ccc(-c2ccccc2Br)cc1C=NNc1nc(-c2ccc([N+](=O)[O-])cc2)cs1 [EMAC2067, 2-{[5-(2-bromophenyl)-2-methoxyphenyl]methylidene}hydrazin-1-yl]-4-(4-nitrophenyl)-1,3-thiazole bromide] | – | 30 ± 3 µM | 27 ± 5 µM | – |
| COc1ccc(-c2csc(NN=Cc3cc(-c4ccc(F)cc4)ccc3OC)n2)cc1 [EMAC2068, 2-[2-{[5-(4-fluorophenyl)-2-methoxyphenyl]methylidene}hydrazin-1-yl]-4-(4-methoxyphenyl)-1,3-thiazole bromide] | – | 61.5 ± 8.5 µM | 29.5 ± 3.5 µM | – |
| COc1ccc(-c2ccc(F)cc2)cc1C=NNc1nc(-c2ccc(Cl)c(Cl)c2)cs1 [EMAC2069, 4-(3,4-dichlorophenyl)-2-[-2-{[5-(4-fluorophenyl)-2-methoxyphenyl]methylidene}hydrazin-1-yl]-1,3-thiazole bromide] | – | 66 ± 2 µM | 52.5 ± 10.5 µM | – |
| COc1ccc(-c2ccc(F)cc2)cc1C=NNc1nc(-c2ccc(Cl)cc2)cs1 [EMAC2070, 4-(4-chlorophenyl)-2-[-2-{[5-(4-fluorophenyl)-2-methoxyphenyl]methylidene}hydrazin-1-yl]-1,3-thiazole bromide] | – | 59 ± 6 µM | 55.5 ± 1.5 µM | – |
| COc1ccc(-c2ccc(F)cc2)cc1C=NNc1nc(-c2ccc([N+](=O)[O-])cc2)cs1 [EMAC2071, [(4-{2-[2-{[5-(4-fluorophenyl)-2-methoxyphenyl]methylidene}hydrazin-1-yl]-1,3-thiazol-4-yl}phenyl)nitroso]oxidanol bromide] | – | 47.5 ± 11.5 µM | 19 ± 1 µM | – |
